# From the supplement of paper PMC10307832
# Assays:
# Test in all cases: relative viability (nuclei count vs DMSO), 5 days (fraction); higher = more cells survive
# Carfilzomib + OSI-027 = compound: CC(C)C[C@H](NC(=O)[C@H](CCc1ccccc1)NC(=O)CN1CCOCC1)C(=O)N[C@@H](Cc1ccccc1)C(=O)N[C@@H](CC(C)C)C(=O)[C@@]1(C)CO1 [Carfilzomib] + COc1cccc2cc(-c3nc([C@H]4CC[C@H](C(=O)O)CC4)n4ncnc(N)c34)[nH]c12 [OSI-027] (partner 0.5 µM)
# Summary of the method: (§1)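 After 5 days of treatment, lung cancer cells in 1536-well plates were fixed and stained in a single step (final 0.05% Triton X-100, 1% formaldehyde, 1 ug/ml Hoechst) and their nuclei counted on 4× images. Treatment had been applied by pin tool the day after seeding as one drug alone or as a fixed anchor-drug dose with five library-drug doses (not always all listed) in √10 steps. Relative viability is the nuclei count of treated wells divided by that of vehicle wells, and values are medians of duplicate plates.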
# Crizotinib + Foretinib = compound: C[C@@H](Oc1cc(-c2cnn(C3CCNCC3)c2)cnc1N)c1c(Cl)ccc(F)c1Cl [Crizotinib] + COc1cc2c(Oc3ccc(NC(=O)C4(C(=O)Nc5ccc(F)cc5)CC4)cc3F)ccnc2cc1OCCCN1CCOCC1 [Foretinib] (partner 0.25 µM)
# Summary of the method: as §1
# Olaparib + Alpelisib = compound: O=C(c1cc(Cc2n[nH]c(=O)c3ccccc23)ccc1F)N1CCN(C(=O)C2CC2)CC1 [Olaparib] + Cc1nc(NC(=O)N2CCC[C@H]2C(N)=O)sc1-c1ccnc(C(C)(C)C(F)(F)F)c1 [Alpelisib] (partner 2 µM)
# Summary of the method: as §1
# Olaparib + Decitabine = compound: O=C(c1cc(Cc2n[nH]c(=O)c3ccccc23)ccc1F)N1CCN(C(=O)C2CC2)CC1 [Olaparib] + Nc1ncn([C@H]2C[C@H](O)[C@@H](CO)O2)c(=O)n1 [Decitabine] (partner 2 µM)
# Summary of the method: as §1
Cell Line,relative viability (Carfilzomib + OSI-027; first compound 0.001 µM),relative viability (Carfilzomib + OSI-027; first compound 0.003162 µM),relative viability (Carfilzomib + OSI-027; first compound 0.01 µM),relative viability (Carfilzomib + OSI-027; first compound 0.03162 µM),relative viability (Carfilzomib + OSI-027; first compound 0.1 µM),relative viability (Crizotinib + Foretinib; first compound 0.01 µM),relative viability (Crizotinib + Foretinib; first compound 0.03162 µM),relative viability (Crizotinib + Foretinib; first compound 0.1 µM),relative viability (Crizotinib + Foretinib; first compound 0.3162 µM),relative viability (Crizotinib + Foretinib; first compound 1 µM),relative viability (Olaparib + Alpelisib; first compound 0.08 µM),relative viability (Olaparib + Alpelisib; first compound 0.253 µM),relative viability (Olaparib + Alpelisib; first compound 2.53 µM),relative viability (Olaparib + Alpelisib; first compound 8 µM),relative viability (Olaparib + Decitabine; first compound 0.08 µM),relative viability (Olaparib + Decitabine; first compound 0.253 µM),relative viability (Olaparib + Decitabine; first compound 2.53 µM),relative viability (Olaparib + Decitabine; first compound 8 µM)
201T,0.749,0.795,0.884,0.437,0.31,0.982,1.12,1.09,1.13,1.14,0.985,0.938,1.01,0.98,0.819,0.68,0.611,0.632
A549,–,–,–,–,–,0.919,1.05,0.908,0.853,1.02,0.822,0.63,0.671,0.589,0.119,0.073,0.0622,0.0462
A-427,0.47,0.542,0.395,0.145,0.132,0.943,1.04,1.04,–,1.04,1.14,1.06,0.855,0.809,0.471,0.478,0.483,0.404
ABC-1,0.431,0.289,0.276,0.158,0.171,–,1.02,1.05,1.31,1.09,0.958,1,0.96,0.981,1.07,–,0.836,0.718
BEN,0.312,0.313,0.3,0.294,0.263,0.866,0.732,0.644,0.332,0.633,1.02,1.02,1.19,0.995,0.654,0.55,0.639,0.641
CAL-12T,0.667,0.708,0.85,0.131,0.131,1.11,1.17,–,–,1.24,1.79,1.03,1.25,1.12,–,–,–,–
COR-L23,0.455,0.908,0.762,0.144,0.0646,0.862,1,0.89,1.06,1.07,0.811,0.586,0.532,0.357,0.353,0.266,0.216,0.199
COR-L 105,0.805,0.82,0.699,0.271,0.191,1.07,1.02,1.12,0.797,1.15,1.17,1.02,0.87,0.639,0.581,0.618,0.52,0.512
Calu-6,–,–,–,–,–,0.855,0.938,0.86,0.947,0.927,1.08,1.04,0.965,0.729,–,–,–,–
ChaGo-K-1,0.414,0.576,0.659,0.554,0.176,0.838,–,0.939,–,0.939,–,–,–,–,0.45,0.43,0.355,0.329
EBC-1,–,–,–,–,–,0.0852,0.1,0.107,0.112,0.104,0.901,0.794,0.68,0.633,–,–,–,–
